Reference: US20230114728A1 (Venatorx Pharmaceuticals, Inc., priority 2019, published 2023)
Converted amounts (≈) assume the structure as drawn.

Experiments:
Assay in all cases: Broth microdilution MIC in CAMHB
Assay type in all cases: cell-based
[1] = test system: A. baumannii ATCC 19606; conditions: Acinetobacter baumannii, ATCC19606; MHB; read-out: Minimum Inhibitory Concentration, A. baumannii ATCC 19606
Experimental: (§1) Example III: In Vitro Antibacterial Assays
(§2) To determine the ability of test compounds to inhibit the growth of bacterial strains, classic cell based broth microdilution minimum inhibitory concentration (MIC) assays were employed. MIC assays are performed according to CLSI methods except where otherwise noted (CLSI, 2018 and CLSI, 2019). The reference type strain E. coli ATCC 25922; the wild-type parent strain E. coli AG100; the hyper-permeable E. coli 901C and E. coli D22; and the E. coli AG100A strain lacking the acrAB efflux pump encoding genes were used to determine the ability of the PBP inhibitors to penetrate the outer membrane of gram-negative bacteria and inhibit bacterial growth. […] The P. aeruginosa ATCC 27853 and A. baumannii ATCC 19606, along with the hyper-permeable P. aeruginosa ATCC 35151 and an engineered efflux pump-compromised strain of P. aeruginosa (ΔmexAB-oprM) were used to determine the ability of PBP inhibitors to penetrate the outer membrane of P. aeruginosa and A. baumannii and assess antibacterial activity against these important gram-negative organisms.
(§3) Briefly, cryo-preserved bacterial cultures of challenge strains are streaked for isolation on appropriate agar medium, in this case cation-adjusted Mueller Hinton agar. Following incubation to allow growth of the colonies, plates are sealed with parafilm and stored refrigerated for up to two weeks. For preparation of assay inoculum and to ensure low variability, at least 5 colonies are picked from the agar plates with an inoculating loop and aseptically transferred to a culture tube containing 3 mL of cation-adjusted Mueller Hinton broth (CAMHB). The broth culture is grown for 3-5 hours at 37° C. with shaking at 200 rpm. Meanwhile, 2-fold serial dilutions of test compounds are conducted in a 96-well plate with a final volume of 75 μL per well at 2-fold the final desired concentration. After the dilution plates are set up the growing cultures are then diluted in a cuvette containing CAMHB and the optical density is measured at 600 nm. The inoculum is diluted such that 75 μL of this culture in CAMHB results in a starting bacterial concentration of 2-8×10^5 CFU/mL when added to the dilution plates. The plates are incubated for 16-20 hours for Enterobacteriaceae and Pseudomonas and 20-24 hours for Acinetobacter at 37° C. The MIC values are read visually as the lowest concentration well with no bacterial growth.

[2] = test system: E. coli D22; conditions: Escherichia coli; MHB; hyper-permeable E. coli D22; read-out: Minimum Inhibitory Concentration, E. coli D22
Experimental: as §1, §2, §3

[3] = test system: K. pneumoniae UMM producing SHV-5 and KPC-2; conditions: Klebsiella pneumoniae, read-out: Minimum Inhibitory Concentration, K. pneumoniae UMM
Experimental: as §1, §2, §3

[4] = test system: E. coli AG100; conditions: Escherichia coli; MHB; wild-type parent strain E. coli AG100; read-out: Minimum Inhibitory Concentration, E. coli AG100
Experimental: as §1, §2, §3

[5] = test system: P. aeruginosa ATCC 27853; conditions: Pseudomonas aeruginosa, ATCC27853; MHB; read-out: Minimum Inhibitory Concentration, P. aeruginosa ATCC 27853
Experimental: as §1, §2, §3

[6] = test system: P. aeruginosa (ΔmexAB-oprM); conditions: Pseudomonas aeruginosa, read-out: Minimum Inhibitory Concentration, P. aeruginosa ΔmexAB-OprM
Experimental: as §1, §2, §3

[7] = test system: E. coli ATCC 25922; conditions: Escherichia coli, ATCC25922; MHB; E. coli ATCC 25922; read-out: Minimum Inhibitory Concentration, E. coli 25922
Experimental: as §1, §2, §3

[8] = test system: K. pneumoniae 848844 producing SHV-11 and KPC-2; conditions: Klebsiella pneumoniae, read-out: Minimum Inhibitory Concentration, K. pneumoniae 848844
Experimental: as §1, §2, §3

[9] = test system: P. aeruginosa ATCC 35151; conditions: Pseudomonas aeruginosa, ATCC35151; MHB; hyper-permeable strain; read-out: Minimum Inhibitory Concentration, P. aeruginosa ATCC 35151
Experimental: as §1, §2, §3

[10] = test system: E. coli 901C; conditions: Escherichia coli; MHB; hyper-permeable E. coli 901C; read-out: Minimum Inhibitory Concentration, E. coli 901C
Experimental: as §1, §2, §3

[11] = test system: E. coli AG100A; conditions: Escherichia coli, read-out: Minimum Inhibitory Concentration, E. coli AG100A
Experimental: as §1, §2, §3

[12] = test system: K. pneumoniae SI-117 producing VIM-1; conditions: Klebsiella pneumoniae, read-out: Minimum Inhibitory Concentration, K. pneumoniae SI-117
Experimental: as §1, §2, §3

## NCCN1CCN(C(=O)N[C@H](C(=O)N[C@H]2Cc3cccc(C(=O)O)c3OB2O)c2c(Cl)cccc2Cl)C(=O)C1=O (single isomer, unassigned) [Example 225]
[1]
  MIC: > 128 mg/L
[2]
  MIC: > 128 mg/L
[3]
  MIC: 32 to 64 mg/L (≈ 54 to 108 µM)
[4]
  MIC: > 128 mg/L
[5]
  MIC: > 128 mg/L
[6]
  MIC: > 128 mg/L
[7]
  MIC: > 128 mg/L
[8]
  MIC: > 128 mg/L
[9]
  MIC: > 128 mg/L
[10]
  MIC: > 128 mg/L
[11]
  MIC: > 128 mg/L
[12]
  MIC: > 128 mg/L

## NC1(CN2CCN(C(=O)N[C@@H](C(=O)N[C@H]3Cc4cccc(C(=O)O)c4OB3O)c3cc(F)c(O)c(F)c3F)C(=O)C2=O)CC1 (single isomer, unassigned) [Example 244]
[1]
  MIC: > 128 mg/L
[2]
  MIC: 32 to 64 mg/L (≈ 51.7 to 103 µM)
[3]
  MIC: < 0.25 mg/L
[4]
  MIC: > 128 mg/L
[5]
  MIC: 32 to 64 mg/L (≈ 51.7 to 103 µM)
[6]
  MIC: 2 to 4 mg/L (≈ 3.23 to 6.46 µM)
[7]
  MIC: 8 to 16 mg/L (≈ 12.9 to 25.8 µM)
[8]
  MIC: 32 to 64 mg/L (≈ 51.7 to 103 µM)
[9]
  MIC: < 0.25 mg/L
[10]
  MIC: > 128 mg/L
[11]
  MIC: 32 to 64 mg/L (≈ 51.7 to 103 µM)
[12]
  MIC: 2 to 4 mg/L (≈ 3.23 to 6.46 µM)

## NC1(CN2CCN(C(=O)NC(C(=O)N[C@H]3Cc4cccc(C(=O)O)c4OB3O)c3cc(F)c(O)c(F)c3F)C(=O)C2=O)CC1 (single isomer, unassigned) [Example 245]
[1]
  MIC: > 128 mg/L
[2]
  MIC: > 128 mg/L
[3]
  MIC: 2 to 4 mg/L (≈ 3.23 to 6.46 µM)
[4]
  MIC: > 128 mg/L
[5]
  MIC: > 128 mg/L
[6]
  MIC: 8 to 16 mg/L (≈ 12.9 to 25.8 µM)
[7]
  MIC: > 128 mg/L
[8]
  MIC: > 128 mg/L
[9]
  MIC: 0.5 to 1 mg/L (≈ 0.807 to 1.61 µM)
[10]
  MIC: > 128 mg/L
[11]
  MIC: > 128 mg/L
[12]
  MIC: 8 to 16 mg/L (≈ 12.9 to 25.8 µM)

## NCCCN1CCN(C(=O)N[C@@H](C(=O)N[C@H]2Cc3cccc(C(=O)O)c3OB2O)c2cc(F)c(O)c(F)c2F)C(=O)C1=O (single isomer, unassigned) [Example 246]
[1]
  MIC: > 128 mg/L
[2]
  MIC: 32 to 64 mg/L (≈ 52.7 to 105 µM)
[3]
  MIC: 2 to 4 mg/L (≈ 3.29 to 6.59 µM)
[4]
  MIC: > 128 mg/L
[5]
  MIC: > 128 mg/L
[6]
  MIC: 8 to 16 mg/L (≈ 13.2 to 26.3 µM)
[7]
  MIC: 32 to 64 mg/L (≈ 52.7 to 105 µM)
[8]
  MIC: > 128 mg/L
[9]
  MIC: 0.5 to 1 mg/L (≈ 0.823 to 1.65 µM)
[10]
  MIC: > 128 mg/L
[11]
  MIC: > 128 mg/L
[12]
  MIC: 8 to 16 mg/L (≈ 13.2 to 26.3 µM)
